Ki data for 19 compounds are collected here from patent US12466829B2, “Spirocyclic piperidine melanocortin subtype-2 receptor (MC2R) antagonists and uses thereof” (Crinetics Pharmaceuticals, Inc., priority 2019, dated 2025).

The test deals with T1, hMC2 receptor (Homo sapiens, UniProt Q01718).
T1 construct: host or cells: CRE-bla-CHO-K1 cells
T1 sequence (Q01718 whole entry): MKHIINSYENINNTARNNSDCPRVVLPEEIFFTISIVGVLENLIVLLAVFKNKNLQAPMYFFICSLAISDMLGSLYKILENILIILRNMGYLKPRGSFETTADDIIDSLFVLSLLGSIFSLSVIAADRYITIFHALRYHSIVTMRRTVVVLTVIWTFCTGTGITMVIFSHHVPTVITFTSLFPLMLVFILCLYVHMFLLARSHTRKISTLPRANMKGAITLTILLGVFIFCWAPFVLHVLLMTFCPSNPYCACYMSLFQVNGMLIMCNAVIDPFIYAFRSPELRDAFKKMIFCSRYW
T1 sequence (Q8TCY5 whole entry partner): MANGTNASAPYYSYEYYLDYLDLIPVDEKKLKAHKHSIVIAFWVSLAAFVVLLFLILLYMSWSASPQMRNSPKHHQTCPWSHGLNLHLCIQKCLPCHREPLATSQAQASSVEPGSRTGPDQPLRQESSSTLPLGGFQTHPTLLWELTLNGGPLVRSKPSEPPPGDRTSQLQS
Put plainly: hMC2 membrane binding assay ([125I]ACTH (1-39) Tyr23, SPA). The settings on record: crude membranes of CRE-bla-CHO-K1 cells expressing hMC2 receptor and hMRAP; 0.2 nM [125I]ACTH (1-39) Tyr23; 1.5 hours at room temperature; read-out: MC2R binding potency. Here is the method: Crude membrane fractions are prepared from CRE-bla-CHO-K1 cells stably expressing hMC2 receptor and hMRAP accessory protein (Thermo Fisher). The cells are grown to 85-100% confluence on standard tissue culture dishes in GlutaMax DMEM growth media (Gibco) with following additives: 10% dialyzed FBS (Gemini), 0.1 mM NEAA (Gibco), 25 mM HEPES (Gibco), 5 μg/mL blasticidin (Goldbio), 100 μg/mL zeocin (Invitrogen), 600 μg/mL hygromycin (Goldbio). To prepare membranes, cells are scraped and collected in 1× Dulbecco's phosphate buffered saline (Corning) and then pelleted at 1000 RPM's. The cell pellet is reconstituted in membrane preparation buffer (20 mM HEPES, 6 mM MgCl2 and 1 mM EGTA, protease inhibitor tablets (Pierce) adjusted to pH 7.4), homogenized using a dounce homogenizer, and the resulting membrane fraction is pelleted by centrifugation at 12,000 RPM's. The membrane pellet is resuspended in membrane preparation buffer, snap freezed and stored at −80° C. for later use.
The hMC2 membrane binding assay utilizes the following components: radiolabel [^125I]ACTH (1-39) Tyr23 (PerkinElmer), wheatgerm agglutinin coated PVT SPA beads (PerkinElmer), crude hMC2R membranes, and compounds. Briefly hMC2R membranes are incubated with SPA beads in binding assay buffer (50 mM HEPES, 5 mM MgCl2, 1 mM CaCl2), 0.2% BSA, protease inhibitor tablets (Pierce) adjusted to pH7.4) prior to assay initiation. […] Assay plates are read using a Top Count NXT and Ki values for compounds are determined using a GraphPad Prism 6 non-linear regression analysis.
On to `CCOc1ncccc1-c1ccc2c(c1)N(C(=O)CCN)CC21CCN(c2ccc(C(F)(F)F)cc2C#N)CC1` [1-3, 2-[1-(3-aminopropanoyl)-6-(2-ethoxypyridin-3-yl)-1,2-dihydrospiro[indole-3,4′-piperidin]-1′-yl]-5-(trifluoromethyl)benzonitrile], for which the Ki lay within 10 to 100 nM.
To `CCOc1ncccc1-c1ccc2c(c1)N(CCN)C(=O)CC21CCN(c2ccc(C(F)(F)F)cc2C#N)CC1` [1-66, 2-[1′-(2-aminoethyl)-7′-(2-ethoxypyridin-3-yl)-2′-oxo-2′,3′-dihydro-1′H-spiro[piperidine-4,4′-quinolin]-1-yl]-5-(trifluoromethyl)benzonitrile] belongs 10 to 100 nM.
Take `CCOc1ncccc1-c1ccc2c(c1)N(C[C@H](C)N)C(=O)CC21CCN(c2ccc(C(F)(F)F)cc2C#N)CC1` [1-68, 2-{1′-[(2S)-2-aminopropyl]-7′-(2-ethoxypyridin-3-yl)-2′-oxo-2′,3′-dihydro-1′H-spiro[piperidine-4,4′-quinolin]-1-yl}-5-(trifluoromethyl)benzonitrile]: the Ki is 10 to 100 nM.
Next, `CCOc1ncccc1-c1ccc2c(c1)N([C@H]1CCNC1)C(=O)C21CCN(c2ccc(C(F)(F)F)cc2C#N)CC1` [1-17, 2-[6-(2-ethoxypyridin-3-yl)-2-oxo-1-[(3S)-pyrrolidin-3-yl]-1,2-dihydrospiro[indole-3,4′-piperidin]-1′-yl]-5-(trifluoromethyl)benzonitrile]: 10 to 100 nM; `CCOc1ncccc1-c1ccc2c(n1)N(C(=O)[C@@H]1CCNC1)CC21CCN(c2ccc(C(F)(F)F)cc2C#N)CC1` [1-49, 2-[6′-(2-ethoxypyridin-3-yl)-1′-[(3R)-pyrrolidine-3-carbonyl]-1′,2′-dihydrospiro[piperidine-4,3′-pyrrolo[2,3-b]pyridin]-1-yl]-5-(trifluoromethyl)benzonitrile]: below 10 nM.
To `CCOc1ncccc1-c1ccc2c(c1)N(C[C@H](C)N)CC21CCN(c2ccc(C(F)(F)F)cc2C#N)CC1` [1-14, 2-{1-[(2S)-2-aminopropyl]-6-(2-ethoxypyridin-3-yl)-1,2-dihydrospiro[indole-3,4′-piperidin]-1′-yl}-5-(trifluoromethyl)benzonitrile] belongs 10 to 100 nM; to `CCOc1ncccc1-c1ccc2c(c1)N(C(=O)N[C@@H]1CCNC1)CC21CCN(c2ccc(C(F)(F)F)cc2C#N)CC1` [1-32, 1′-[2-cyano-4-(trifluoromethyl)phenyl]-6-(2-ethoxypyridin-3-yl)-N-[(3R)-pyrrolidin-3-yl]-1,2-dihydrospiro[indole-3,4′-piperidine]-1-carboxamide], 10 to 100 nM; to `CCOc1ncccc1-c1ccc2c(n1)N(CCN)CC21CCN(c2ccc(C(F)(F)F)cc2C#N)CC1` [1-29, 2-[1′-(2-aminoethyl)-6′-(2-ethoxypyridin-3-yl)-1′,2′-dihydrospiro[piperidine-4,3′-pyrrolo[2,3-b]pyridin]-1-yl]-5-(trifluoromethyl)benzonitrile], below 10 nM.
Next, `CCOc1ncccc1-c1ccc2c(c1)N(C(=O)CCN)CC21CCN(c2ccc(F)c(C(F)(F)F)n2)CC1` [1-20, 3-amino-1-[6-(2-ethoxypyridin-3-yl)-1′-[5-fluoro-6-(trifluoromethyl)pyridin-2-yl]-1,2-dihydrospiro[indole-3,4′-piperidin]-1-yl]propan-1-one]: 1000 to 10000 nM; `CCOc1ncccc1-c1ccc2c(c1)N(C(=O)C[C@H](C)N)CC21CCN(c2ccc(C(F)(F)F)cc2C#N)CC1` [1-5, 2-{1-[(3 S)-3-aminobutanoyl]-6-(2-ethoxypyridin-3-yl)-1,2-dihydrospiro[indole-3,4′-piperidin]-1′-yl}-5-(trifluoromethyl)benzonitrile]: 10 to 100 nM.
With `CCOc1ncccc1-c1ccc2c(c1)N(C[C@H]1CCN1)CC21CCN(c2ccc(C(F)(F)F)cc2C#N)CC1` [1-38, 2-(1-{[(2R)-azetidin-2-yl]methyl}-6-(2-ethoxypyridin-3-yl)-1,2-dihydrospiro[indole-3,4′-piperidin]-1′-yl)-5-(trifluoromethyl)benzonitrile], the Ki lay within 10 to 100 nM.
Turning to `CCOc1ccccc1-c1ccc2c(c1)N(C(=O)CN)CC21CCN(c2ccc(C(F)(F)F)cc2C#N)CC1` [1-2, 2-[1-(2-aminoacetyl)-6-(2-ethoxyphenyl)-1,2-dihydrospiro[indole-3,4′-piperidin]-1′-yl]-5-(trifluoromethyl)benzonitrile], the Ki was 10 to 100 nM.
Next, `CCOc1ccc(N2CCC3(CC2)CN(C(=O)CCN)c2cc(-c4cccnc4OCC)ccc23)nc1C(F)(F)F` [1-25, 3-amino-1-{1′-[5-ethoxy-6-(trifluoromethyl)pyridin-2-yl]-6-(2-ethoxypyridin-3-yl)-1,2-dihydrospiro[indole-3,4′-piperidin]-1-yl}propan-1-one]: 1000 to 10000 nM.
As to `CCOc1ncccc1-c1ccc2c(n1)N(CCCN)CC21CCN(c2ccc(C(F)(F)F)cc2C#N)CC1` [1-54, 2-[1′-(3-aminopropyl)-6′-(2-ethoxypyridin-3-yl)-1′,2′-dihydrospiro[piperidine-4,3′-pyrrolo[2,3-b]pyridin]-1-yl]-5-(trifluoromethyl)benzonitrile], the Ki is below 10 nM.
To `CCOc1ncccc1-c1ccc2c(n1)N(C(=O)N[C@@H]1CCNC1)CC21CCN(c2ccc(C(F)(F)F)cc2C#N)CC1` [1-57, 1-[2-cyano-4-(trifluoromethyl)phenyl]-6′-(2-ethoxypyridin-3-yl)-N-[(3R)-pyrrolidin-3-yl]-1′,2′-dihydrospiro[piperidine-4,3′-pyrrolo[2,3-b]pyridine]-1′-carboxamide] belongs 10 to 100 nM.
Next, `CCOc1ncccc1-c1ccc2c(c1)N(C(=O)CCN)CC21CCN(c2ccc(OC)nc2C#N)CC1` [1-43, 3-[1-(3-aminopropanoyl)-6-(2-ethoxypyridin-3-yl)-1,2-dihydrospiro[indole-3,4′-piperidin]-1′-yl]-6-methoxypyridine-2-carbonitrile]: 10 to 100 nM; `CCOc1ncccc1-c1ccc2c(c1)N(C(=O)CN)CC21CCN(c2ccc(C(F)(F)F)cc2C#N)CC1` [1-1, 2-[1-(2-aminoacetyl)-6-(2-ethoxypyridin-3-yl)-1,2-dihydrospiro[indole-3,4′-piperidin]-1′-yl]-5-(trifluoromethyl)benzonitrile]: 10 to 100 nM.
Next, `CCOc1ncccc1-c1ccc2c(n1)N(CCNC)C(=O)C21CCN(c2ccc(C(F)(F)F)cc2C#N)CC1` [1-63, 2-[6′-(2-ethoxypyridin-3-yl)-1′-[2-(methylamino)ethyl]-2′-oxo-1′,2′-dihydrospiro[piperidine-4,3′-pyrrolo[2,3-b]pyridin]-1-yl]-5-(trifluoromethyl)benzonitrile]: below 10 nM.
Take `CCOc1ncccc1-c1ccc2c(c1)N(CCN)C(=O)NC21CCN(c2ccc(C(F)(F)F)cc2C#N)CC1` [1-64, 2-[1′-(2-aminoethyl)-7′-(2-ethoxypyridin-3-yl)-2′-oxo-2′,3′-dihydro-1′H-spiro[piperidine-4,4′-quinazolin]-1-yl]-5-(trifluoromethyl)benzonitrile]: the Ki was below 10 nM.
